Experimental data taken from patent US6072051A, “Nucleoside derivatives and process for preparing the same” (priority 1995, dated 2000).
Read-outs that look alike come from different tables or passages of the source.

Assays:
[1] = Toxicity (CC50) in Hep G2 2.2.15 cell lines, anti-HBV test; format: cell-based; conditions: human, hep g2 2.2.15 cells
Protocol: (§1) The anti-HBV activity of the compounds according to the present invention, was tested in Hep G2 2.2.15 cell lines, as using 2',3'-dideoxycytidine as a control compound.

HBV [2] = assay: Test of Anti-HBV Activity in Hep G2 2.2.15 cell lines; format: cell-based; conditions: for EC50 / EC90: Hepatitis B virus, HepG2 2.2.15
Protocol: as §1

HBV [3] = conditions: Proc. Natl. Acad. Sci. USA, 88, 8495 (1991); Biochem. Pharm., 47, 171 (1994); cited from earlier work
[4] = Hep G2 2.2.15 cell lines, anti-HBV activity, read-out: EC50
[5] = Hep G2 2.2.15 cell lines, anti-HBV activity, read-out: EC90

Row | SMILES | CC50 [1] [µM] | EC50 (HBV [2]; [4]) [µM] | EC90 (HBV [2]; [5]) [µM] | Sl (CC50 /EC90) (HBV [2]; human, hep g2 2.2.15 cells) | anti-HBV activity (reported) (HBV [3]) | EC50 (HBV [2]) [µM] | EC90 (HBV [2]) [µM] | Sl (CC50 /EC90) (HBV [2]; ratio CC50 /EC90, Hep G2 2.2.15 cell lines)
1 | O=c1[nH]c(=O)n([C@@H]2C[C@](F)(CO)CO2)cc1I (relative stereo) [Compound 15, cis-2-(5-Iodouracil-1-yl)-4-fluoro-4-hydroxymethyltetrahydrofuran] | 2200 | 0.6 | 4.4 | 501 | – | – | – | –
2 | Nc1nc(=O)n([C@@H]2CC[C@H](CO)O2)cc1F [2', 3'-dideoxy-β-L-5-fluorocytidine] | – | – | – | – | have anti-HBV activity | – | – | –
3 | Cc1cn([C@H]2C[C@](F)(CO)CO2)c(=O)[nH]c1=O (relative stereo) [Compound 6, trans-2-(Thymin-1-yl)-4-fluoro-4-hydroxymethyltetrahydrofuran] | 2320 | 0.2 | 1 | 2,321 | – | – | – | –
4 | O=c1[nH]c(=O)n([C@H]2C[C@](F)(CO)CO2)cc1I (relative stereo) [Compound 16, trans-2-(5-iodouracil-1-yl)-4-fluoro-4-hydroxymethyltetrahydrofuran] | 451 | 0.8 | 5.3 | 85 | – | – | – | –
5 | Nc1ccn([C@H]2C[C@](F)(CO)CO2)c(=O)n1 (relative stereo) [Compound 8, trans-2-(Cytosin-1-yl)-4-fluoro-4-hydroxymethyltetrahydrofuran] | 1500 | 0.08 | 0.522 | 2,874 | – | – | – | –
6 | Nc1nc(=O)n([C@H]2C[C@](F)(CO)CO2)cc1F (relative stereo) [Compound 10, trans-2-(5-Fluorocytosin-1-yl)-4-fluoro-4-hydroxymethyltetrahydrofuran] | 955 | 0.061 | 0.835 | 1,444 | – | – | – | –
7 | Nc1nc(=O)n([C@@H]2C[C@](F)(CO)CO2)cc1F (relative stereo) [Compound 9, cis-2-(5-Fluorocytosin-1-yl)-4-fluoro-4-hydroxymethyltetrahydrofuran] | 2230 | 0.8 | 0.7 | 319 | – | – | – | –
8 | Nc1ccn([C@@H]2C[C@](F)(CO)CO2)c(=O)n1 (relative stereo) [Compound 7, cis-2-(Cytosin-1-yl)-4-fluoro-4-hydroxymethyltetrahydrofuran] | 1550 | 0.011 | 0.143 | 10,811 | – | – | – | –
9 | Nc1ccn([C@H]2CS[C@@H](CO)O2)c(=O)n1 [2',3'-dideoxy-3'-thiacytidine] | – | – | – | – | have anti-HBV activity | – | – | –
10 | Nc1ccn([C@@H]2CC[C@H](CO)O2)c(=O)n1 [2', 3'-dideoxy-β-L-cytidine] | – | – | – | – | have anti-HBV activity | – | – | –
11 | Nc1nc(=O)n([C@H]2CS[C@@H](CO)O2)cc1F [5-fluoro-2', 3'-dideoxy-3'-thiacytidine] | – | – | – | – | have anti-HBV activity | – | – | –
12 | Nc1ccn([C@H]2CC[C@@H](CO)O2)c(=O)n1 [Control compound, 2',3'-dideoxycytidine, reference compound] | 1080 | – | – | – | – | 7.57 | 35 | 30.811
13 | Cc1cn([C@@H]2C[C@](F)(CO)CO2)c(=O)[nH]c1=O (relative stereo) [Compound 5, cis-2-(Thymin-1-yl)-4-fluoro-4-hydroxymethyltetrahydrofuran] | 472 | 0.1 | 0.8 | 590 | – | – | – | –
